Where “and” joins values, the source holds several entries; their conditions need not be identical. Equal values may be shown once.
Experiment: Tigecycline plasma PK after IV bolus in dogs
Assay type: in vivo, Beagle dogs
Details: for concentration at 10 min / concentration at 15 min / concentration at 20 min: Beagle
Description: Adult beagle dogs weighing approximately 9 to 15 kg were used in the study. […] Room temperature was set to be maintained between approximately 20±5° C. Relative humidity was monitored but not controlled.
TEKLAD™ Certified Canine Diet was provided once daily in amounts (˜400 grams) appropriate for the size and age of the animals. Tap water was available ad libitum via automatic watering device or water bowls.
Doses are expressed in terms of free net tigecycline content. […] Oral dosing of enteric-coated capsules was accomplished by administering them to the back of the dog's mouth, followed by a chase of 5 mL water to ensure swallowing.
Water was provided ad libitum. […] Subsequently, each group of animals was dosed based on the protocol, i.e. either IV, or PO by capsule.
Minocycline (VWR international) was used as an internal standard. Sample processing/clean-up of plasma samples was carried out offline by protein precipitation with acidified acetonitrile using 0.5% trifluoroacetic acid (TFA).
The HPLC system consisted of Shimadzu SIL-HTc HPLC system equipped with dual Shimadzu LC-10ADvp isopumps, a Shimadzu CTO-10ASvp column temperature controller and a Shimadzu SPD-10Avp variable wavelength detector. […] Mobile phase A consisted of 23 mM phosphate buffer pH 2.5 with 4 mM 1-octanesulfonic acid, while mobile phase B consisting of 90% acetonitrile, 10% water, with 2 mM 1-octanesulfonic acid. […] The total runtime was 18 minutes per sample. The mobile phase flow rate was 1.2 mL/min. Detection was performed using the SPD-10Avp variable wavelength detector set at 350 nm, with a sensitivity of 0.001 aufs.
The samples were then centrifuged under refrigeration at 13 k rpm for 5 minutes. The supernatant was taken and the liquid removed to dryness under nitrogen in a turbovap. The dried extract was reconstituted in 60 μL of mobile phase A and the suspension was further centrifuged at 5 k rpm for 5 minutes to pellet any insoluble matter. The resulting supernatant was then injected onto the LC.
The unknown concentration in dog plasma samples was determined by interpolation of the peak area ratios of analyte:internal standard versus the ratio of their nominal concentrations into the regression line obtained from calibration standards spiked in pooled dog plasma. No regression weighting was used for the calculations. […] The calibration curve covered the range of 0.05 μg/mL to 5 μg/mL.
It should be noted however, that when the method was transferred to an older HPLC system (equipped with a Shimadzu SCT-10Avp system controller and SIL-10A autoinjector), the time program was further altered such that the gradient went to 38% mobile phase B to account to system design changes. All other parameters remained unchanged.
Tigecycline PK parameters for individual dogs were calculated using non-compartmental analysis with PK Functions for Microsoft Excel.

[1] = 1 mg IV in PBS (0.08 mg/kg), SC427, individual dogs

CN(C)c1cc(NC(=O)CNC(C)(C)C)c(O)c2c1C[C@H]1C[C@H]3[C@H](N(C)C)C(O)=C(C(N)=O)C(=O)[C@@]3(O)C(O)=C1C2=O [Tigecycline]
AUC(0-t) [1]: 61.40 ng·h/mL and 99.54 ng·h/mL | Cmax [1]: 66.27 ng/mL and 85.18 ng/mL | Tmax [1]: 5 min | Tmax (1 mg IV in PBS (0.08 mg/kg), SC427, mean): 5 min | Tmax (5 mg IV in PBS ([…]), SC431, individual dogs): 5 min | Tmax (5 mg IV in PBS ([…]), SC431, mean): 5 min | Tigecycline Plasma Concentration (5 min, 1 mg IV in PBS (0.08 mg/kg), SC427, individual dogs): 66.27 ng/mL and 85.18 ng/mL | Tigecycline Plasma Concentration (10 min, 1 mg IV in PBS (0.08 mg/kg), SC427, individual dogs): 23.92 ng/mL and 33.00 ng/mL | Tigecycline Plasma Concentration (15 min, 1 mg IV in PBS (0.08 mg/kg), SC427, individual dogs): 19.85 ng/mL and 20.60 ng/mL | Tigecycline Plasma Concentration (20 min, 1 mg IV in PBS (0.08 mg/kg), SC427, individual dogs): 21.11 ng/mL and 29.60 ng/mL | Tigecycline Plasma Concentration (30 min, 1 mg IV in PBS (0.08 mg/kg), SC427, individual dogs): 17.14 ng/mL and 13.86 ng/mL | Tigecycline Plasma Concentration (40 min, 1 mg IV in PBS (0.08 mg/kg), SC427, individual dogs): 11.51 ng/mL and 21.58 ng/mL | Tigecycline Plasma Concentration (60 min, 1 mg IV in PBS (0.08 mg/kg), SC427, individual dogs): 12.49 ng/mL and 14.50 ng/mL | Tigecycline Plasma Concentration (90 min, 1 mg IV in PBS (0.08 mg/kg), SC427, individual dogs): 8.90 ng/mL and 13.98 ng/mL | Tigecycline Plasma Concentration (120 min, 1 mg IV in PBS (0.08 mg/kg), SC427, individual dogs): 8.80 ng/mL and 12.96 ng/mL | Tigecycline Plasma Concentration (360 min, 1 mg IV in PBS (0.08 mg/kg), SC427, individual dogs): 0.00 ng/mL (2×) and 3.45 ng/mL | Cmax, Mean (IV bolus 1 mg (0.08 mg/kg), SC427): 79 ng/mL | Tmax (IV, Study 1 (SC427), 1 mg (0.08 mg/kg), mean (% CV)): 5 (0) min | concentration at 10 min (female, dog, plasma, intravenous, 1 mg, Tigecycline Plasma Concentration, 10 min, 1 mg IV in PBS (0.08 mg/kg), SC427, individual dogs): 38.8 ng/mL | concentration at 10 min (female, dog, plasma, intravenous, 1 mg, Tigecycline Plasma Concentration, 10 min, 1 mg IV in PBS (0.08 mg/kg), SC427, mean): 31.9 ng/mL | concentration at 15 min (female, dog, plasma, intravenous, 1 mg, Tigecycline Plasma Concentration, 15 min, 1 mg IV in PBS (0.08 mg/kg), SC427, individual dogs): 26.5 ng/mL | concentration at 15 min (female, dog, plasma, intravenous, 1 mg, Tigecycline Plasma Concentration, 15 min, 1 mg IV in PBS (0.08 mg/kg), SC427, mean): 22.3 ng/mL | concentration at 20 min (female, dog, plasma, intravenous, 1 mg, Tigecycline Plasma Concentration, 20 min, 1 mg IV in PBS (0.08 mg/kg), SC427, individual dogs): 27.7 ng/mL | concentration at 20 min (female, dog, plasma, intravenous, 1 mg, Tigecycline Plasma Concentration, 20 min, 1 mg IV in PBS (0.08 mg/kg), SC427, mean): 26.1 ng/mL | concentration at 5 min (female, beagle, dog, plasma, intravenous, 1 mg, Tigecycline Plasma Concentration, 5 min, 1 mg IV in PBS (0.08 mg/kg), SC427, individual dogs): 86 ng/mL | concentration at 5 min (female, beagle, dog, plasma, intravenous, 1 mg, Tigecycline Plasma Concentration, 5 min, 1 mg IV in PBS (0.08 mg/kg), SC427, mean): 79.1 ng/mL | concentration at 30 min (female, beagle, dog, plasma, intravenous, 1 mg, Tigecycline Plasma Concentration, 30 min, 1 mg IV in PBS (0.08 mg/kg), SC427, individual dogs): 17.6 ng/mL | concentration at 30 min (female, beagle, dog, plasma, intravenous, 1 mg, Tigecycline Plasma Concentration, 30 min, 1 mg IV in PBS (0.08 mg/kg), SC427, mean): 16.2 ng/mL | concentration at 40 min (female, beagle, dog, plasma, intravenous, 1 mg, Tigecycline Plasma Concentration, 40 min, 1 mg IV in PBS (0.08 mg/kg), SC427, individual dogs): 14.3 ng/mL | concentration at 40 min (female, beagle, dog, plasma, intravenous, 1 mg, Tigecycline Plasma Concentration, 40 min, 1 mg IV in PBS (0.08 mg/kg), SC427, mean): 15.8 ng/mL | concentration at 60 min (female, beagle, dog, plasma, intravenous, 1 mg, Tigecycline Plasma Concentration, 60 min, 1 mg IV in PBS (0.08 mg/kg), SC427, individual dogs): 13.5 ng/mL | concentration at 60 min (female, beagle, dog, plasma, intravenous, 1 mg, Tigecycline Plasma Concentration, 60 min, 1 mg IV in PBS (0.08 mg/kg), SC427, mean): 13.5 ng/mL | concentration at 90 min (female, beagle, dog, plasma, intravenous, 1 mg, Tigecycline Plasma Concentration, 90 min, 1 mg IV in PBS (0.08 mg/kg), SC427, individual dogs): 11.2 ng/mL | concentration at 90 min (female, beagle, dog, plasma, intravenous, 1 mg, Tigecycline Plasma Concentration, 90 min, 1 mg IV in PBS (0.08 mg/kg), SC427, mean): 11.4 ng/mL | concentration at 120 min (female, beagle, dog, plasma, intravenous, 1 mg, Tigecycline Plasma Concentration, 120 min, 1 mg IV in PBS (0.08 mg/kg), SC427, individual dogs): 11.6 ng/mL

Reference: patent US9526785B2, “Pharmaceuticals for oral delivery” (Enteris BioPharma, Inc., priority 2013, dated 2016)
